Experimental data reported in ChEMBL document CHEMBL1130545, “Synthesis and antimicrobial activities of 3-N-substituted-4,5-bis(3-indolyl)oxazol-2-ones” (1997).

Columns and labels:
Type in all cases: functional
Bacillus cereus = assay: The compound was tested in vitro for antimicrobial activity against gram-positive bacteria Bacillus cereus (ATCC 14579) by conventional paper disk; 7-8
Streptomyces chartreusis [1] = assay: The compound was tested in vitro for antimicrobial activity against […] bacteria Streptomyces chartreusis (NRRL 11407) by conventional paper disk; 9-10
Prescottella equi [2] = assay: The compound was tested in vitro for antimicrobial activity against gram-positive bacteria Corynebacterium equi (IFO 3720) by conventional paper disk; 7-8
Streptomyces chartreusis [3] = assay: The compound was tested in vitro for antimicrobial activity against […] bacteria Streptomyces chartreusis (NRRL 11407) by conventional paper disk; 7-8
Enterococcus faecalis = assay: The compound was tested in vitro for antimicrobial activity against gram-positive bacteria Enterococcus faecalis (ATCC 11700) by conventional paper disk; 7-8
Prescottella equi [4] = assay: The compound was tested in vitro for antimicrobial activity against gram-positive bacteria Corynebacterium equi (IFO 3720) by conventional paper disk; 9-10

Compound | Inhibition zone (Bacillus cereus) | Inhibition zone (Streptomyces chartreusis [1]) | Inhibition zone (Prescottella equi [2]) | Inhibition zone (Streptomyces chartreusis [3]) | Inhibition zone (Enterococcus faecalis) | Inhibition zone (Prescottella equi [4])
CCCn1c(-c2c[nH]c3ccccc23)c(-c2c[nH]c3ccccc23)oc1=O | 7 mm | 9 mm | 7 mm |  |  | 
O=c1oc(-c2c[nH]c3ccccc23)c(-c2c[nH]c3ccccc23)n1Cc1ccccc1 | 7 mm |  | 7 mm | 7 mm |  | 
C[C@H](C(=O)O)n1c(-c2c[nH]c3ccccc23)c(-c2c[nH]c3ccccc23)oc1=O | 7 mm | 9 mm | 7 mm |  | 7 mm | 
C=CCn1c(-c2c[nH]c3ccccc23)c(-c2c[nH]c3ccccc23)oc1=O | 7 mm | 9 mm |  |  |  | 9 mm
